Experimental data reported in paper PMC4163382, “Symbiotic Plant Peptides Eliminate Candida albicans Both In Vitro and in an Epithelial Infection Model and Inhibit the Proliferation of Immortalized Human Cells” (BioMed Research International, 2014).

Tests used:
[1] = test system: PK E6/E7 vaginal epithelial cells; assay: MTT assay, cytotoxicity on human epithelial cells; type: cell-based; details: MTT assay, PBgluc, 12.5 to 100 μg/mL, for cationic peptides antifungal concentration range (<25 μg/mL)
Experimental: (§1) The immortalized human vaginal epithelial cell line PK E6/E7 [15] was cultured in serum-free CKM supplemented with 0.005 μg/mL recombinant epidermal growth factor, 50 μg/mL bovine pituitary extract, L-glutamine, and antibiotic/antimycotic solution (Life Technologies) in a CO2 thermostat at 37°C [16]. Cells at 60–70% confluence were used in subsequent experiments.
MTT Assay. PK E6/E7 vaginal epithelial cells were seeded in the wells of a 96-well plate at a density of 1 × 10^4 cells per well in a final volume of 100 μL. CKM was then aspirated and 100 μL of the appropriate peptide diluted in PBgluc was added. After 3 hours of incubation at 37°C, the peptide solution was removed, and the cells were let to regenerate in CKM for 24 hours. Then 5 mg/mL 3-[4,5-dimethylthiazol-2-yl]-2,5-diphenyltetrazolium bromide (MTT) was added to each well and the plate was placed to 37°C for 4 hours. The amount of formazan formed by the activity of the mitochondrial succinate dehydrogenase of living cells was measured by using a microtiter plate reader (FLUOstar OPTIMA) at the wavelength of 560 nm.
10 μg/mL of primycin, a macrolide lactone antibiotic complex that rapidly kills PK cells, was used as a control for cytotoxicity in both assays.
(§2) MTT assays and impedance measurements were performed in at least four technical parallels and two biological replicates; all the data are presented as mean ± standard deviation. Significance was calculated with Newman-Keuls post hoc test using the GraphPad Prism version 5 for Windows and a probability (P) value of less than 0.05 was considered significant.

[2] = test system: C. albicans WO-1 cells; assay: Cell permeability assay (calcein release); type: cell-based, Candida albicans; details: calcein-loaded C. albicans WO-1, 10 mM potassium phosphate buffer pH 7.0, peptide 50 μg/mL, fluorescence 485/530 nm
Experimental: Cell permeability was monitored by the release of the intracellularly accumulated dye calcein. Overnight C. albicans WO-1 cells were washed twice with and resuspended in 10 mM potassium phosphate buffer (pH = 7.0) at a concentration of 10^7 cells mL^−1. Cells were loaded with acetomethoxy-calcein at a final concentration of 5 μM for 2 hours at room temperature. Cells were washed three times to remove the extracellular dye and then 100 μL of the suspension was transferred to FIA black 96-well plates. NCR peptides were then added at a concentration of 50 mg/L, and the release of calcein (formed by the cells' esterases) was measured by its fluorescence in a microtiter plate reader (FLUOstar OPTIMA) at excitation and emission wavelengths of 485 nm and 530 nm, respectively. Calcein efflux was calculated as previously reported.

[3] = test system: PK E6/E7 vaginal epithelial cells infected with C. albicans WO-1; assay: Vaginal epithelial cell - C. albicans coculture (RTCA); type: cell-based, human; details: PK E6/E7 + C. albicans WO-1, MOI of 5, 3 hours coculture then peptide 3 hours in PBgluc at both 25 and 50 μg/mL, RTCA at 40 hours
Experimental: PK E6/E7 cells were seeded in 96-well E-plates as described above for RTCA. On the next day, an overnight culture of C. albicans WO-1 was diluted to OD = 1 and let to grow until OD = 1.5–2. The fungal cell suspension was diluted in antibiotic/antimycotic-free CKM and was added to the human cells with a multiplicity of infection (MOI) of 5. After 3 hours of coculture at 37°C, CKM medium was replaced with NCR peptides in PBgluc. After 3 hours of incubation, peptides were removed and 200 μL of fresh antibiotic/antimycotic-free CKM was added. Subsequent measurements were performed as described above.
as §2

[4] = test system: PK E6/E7 vaginal epithelial cells; assay: Real-Time Cell Analysis (RTCA), proliferation of human epithelial cells; type: cell-based; details: 3 hours treatment in PBgluc, cell index 40 hours after treatment
Experimental: as §1
Real-Time Cell Analysis (RTCA). 7 × 10^4 PK E6/E7 cells per well were seeded in 96-well E-plates (ACEA Biosciences) in which the bottoms of the wells were covered with microelectrodes and the epithelial cells were allowed to attach to the bottom of the wells for 20 hours. CKM was then aspirated and the cells were treated with 100 μL of the peptides diluted in PBgluc. […] The cell index at the beginning of the measurement after treatment was considered as 100% and values measured at 40 hours were expressed (see Supplementary Figure 1in Supplementary Materials available online at http://dx.doi.org/10.1155/2014/320796). […]
as §2

Sequence: AFERTETRMLTIPCTSDANCPKVISPCHTKCFDGFCGWYIEGSYEGP [NCR001, anionic chemically synthesized mature NCR peptide of Medicago truncatula]
- Effect on viability of the human cells [1]: no negative effect
- Calcein (dye) efflux [2]: no calcein release
- Prevention of C. albicans induced epithelial cell death [3]: unable to prevent vaginal epithelial cell death
- Effect on proliferation of the human cells [4]: no negative effect
